Experimental data from patent US10023568B2, “Naphthyridine derivatives useful as αvβ6 integrin antagonists” (GlaxoSmithKline Intellectual Property Development Limited, priority 2013, dated 2018).
Converted amounts (≈) assume the structure as drawn.

Key:
αvβ5 = target: T1, αvβ5 (Homo sapiens, UniProt P06756+P18084); assay: Cell Adhesion Assay K562-αvβ5 (Vitronectin); assay type: cell-based; conditions: K562-αvβ5 cells, ligand Vitronectin, 2 mM MgCl2; read-out: affinity in the cell Adhesion Assays αvβ5 pIC50 (converted)
T1 construct: expressed in transfected cells; host or cells: K562-αvβ5
T1 sequence (P06756 31-1048): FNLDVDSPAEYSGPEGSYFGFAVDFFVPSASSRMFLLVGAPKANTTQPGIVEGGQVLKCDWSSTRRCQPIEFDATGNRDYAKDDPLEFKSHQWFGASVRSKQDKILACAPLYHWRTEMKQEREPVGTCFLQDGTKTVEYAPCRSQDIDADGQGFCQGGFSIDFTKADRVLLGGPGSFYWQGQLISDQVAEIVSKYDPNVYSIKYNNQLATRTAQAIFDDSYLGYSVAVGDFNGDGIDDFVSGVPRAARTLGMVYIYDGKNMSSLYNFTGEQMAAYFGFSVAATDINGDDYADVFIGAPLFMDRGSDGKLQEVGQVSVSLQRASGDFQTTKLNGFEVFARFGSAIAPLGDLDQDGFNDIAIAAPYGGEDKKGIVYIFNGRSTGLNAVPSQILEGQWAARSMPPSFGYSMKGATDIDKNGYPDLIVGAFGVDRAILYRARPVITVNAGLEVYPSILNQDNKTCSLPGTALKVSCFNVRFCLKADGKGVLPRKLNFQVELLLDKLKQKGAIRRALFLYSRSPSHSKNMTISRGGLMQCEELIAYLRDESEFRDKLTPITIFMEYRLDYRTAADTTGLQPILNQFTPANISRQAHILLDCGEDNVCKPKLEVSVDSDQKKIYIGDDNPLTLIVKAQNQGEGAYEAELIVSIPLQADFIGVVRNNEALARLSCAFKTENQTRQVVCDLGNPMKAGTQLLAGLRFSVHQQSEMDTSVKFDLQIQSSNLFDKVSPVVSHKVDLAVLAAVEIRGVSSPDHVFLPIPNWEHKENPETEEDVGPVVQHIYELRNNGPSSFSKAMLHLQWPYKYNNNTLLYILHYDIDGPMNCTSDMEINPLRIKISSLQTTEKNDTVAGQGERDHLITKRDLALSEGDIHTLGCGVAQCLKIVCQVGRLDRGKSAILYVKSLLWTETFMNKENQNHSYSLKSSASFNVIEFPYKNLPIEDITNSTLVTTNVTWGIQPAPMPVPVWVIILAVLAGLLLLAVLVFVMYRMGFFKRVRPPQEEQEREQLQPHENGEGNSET
T1 sequence (P18084 24-799): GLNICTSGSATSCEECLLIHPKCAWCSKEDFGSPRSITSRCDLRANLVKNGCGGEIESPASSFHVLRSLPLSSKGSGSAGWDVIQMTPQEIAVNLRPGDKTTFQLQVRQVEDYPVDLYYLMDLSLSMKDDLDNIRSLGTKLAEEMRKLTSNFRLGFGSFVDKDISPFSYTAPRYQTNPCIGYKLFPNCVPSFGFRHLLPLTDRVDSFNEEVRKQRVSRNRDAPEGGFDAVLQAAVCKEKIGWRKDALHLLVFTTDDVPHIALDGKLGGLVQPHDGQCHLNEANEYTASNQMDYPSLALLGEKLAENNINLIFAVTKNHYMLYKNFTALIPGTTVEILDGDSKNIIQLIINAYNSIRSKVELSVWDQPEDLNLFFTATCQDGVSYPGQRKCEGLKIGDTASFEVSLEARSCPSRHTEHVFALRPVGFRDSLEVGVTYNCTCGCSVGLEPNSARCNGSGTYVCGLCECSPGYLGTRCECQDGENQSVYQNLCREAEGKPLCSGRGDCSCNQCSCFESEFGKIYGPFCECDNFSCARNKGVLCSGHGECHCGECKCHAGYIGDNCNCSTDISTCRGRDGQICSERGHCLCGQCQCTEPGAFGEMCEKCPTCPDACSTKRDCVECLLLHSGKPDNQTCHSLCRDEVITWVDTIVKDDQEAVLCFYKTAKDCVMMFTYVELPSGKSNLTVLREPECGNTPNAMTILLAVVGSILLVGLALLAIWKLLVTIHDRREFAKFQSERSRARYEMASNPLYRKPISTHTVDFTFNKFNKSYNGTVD
Description: (§1) The following cell lines were used, with ligands in brackets: K562-α5β1 (Fibronectin), K562-αvβ3 (LAP-b1), K562-αvβ5 (Vitronectin), K562-αvβ6 (LAP-b1), K562-αvβ8 (LAP-b1). The divalent cation used to facilitate adhesion was 2 mM MgCl2. Adhesion was quantified by cell labelling with the fluorescent dye BCECF-AM (Life Technologies), where cell suspensions at 6×10^6 cells/mL were incubated with […] of 30 mM BCECF-AM at 37° C. for 10 minutes, before dispensing into the assay plate. At the assay conclusion cells that adhered were lysed using 50 μL/well of 0.5% Triton X-100 in H2O to release fluorescence. Fluorescence intensity was detected using an Envision® plate reader (Perkin Elmer). For active antagonists in the assay, data were fitted to a 4 parameter logistic equation for IC50 determinations.

αvβ3 = target: T2, αvβ3 (Homo sapiens, UniProt P05106+P06756); assay: Cell Adhesion Assay K562-αvβ3 (LAP-b1); assay type: cell-based; conditions: K562-αvβ3 cells, ligand LAP-b1, 2 mM MgCl2; read-out: affinity in the cell Adhesion Assays αvβ3 pIC50 (converted)
T2 construct: expressed in transfected cells; host or cells: K562-αvβ3
T2 sequence (P06756 31-1048): as the sequence (P06756 31-1048) above
T2 sequence (P05106 27-788): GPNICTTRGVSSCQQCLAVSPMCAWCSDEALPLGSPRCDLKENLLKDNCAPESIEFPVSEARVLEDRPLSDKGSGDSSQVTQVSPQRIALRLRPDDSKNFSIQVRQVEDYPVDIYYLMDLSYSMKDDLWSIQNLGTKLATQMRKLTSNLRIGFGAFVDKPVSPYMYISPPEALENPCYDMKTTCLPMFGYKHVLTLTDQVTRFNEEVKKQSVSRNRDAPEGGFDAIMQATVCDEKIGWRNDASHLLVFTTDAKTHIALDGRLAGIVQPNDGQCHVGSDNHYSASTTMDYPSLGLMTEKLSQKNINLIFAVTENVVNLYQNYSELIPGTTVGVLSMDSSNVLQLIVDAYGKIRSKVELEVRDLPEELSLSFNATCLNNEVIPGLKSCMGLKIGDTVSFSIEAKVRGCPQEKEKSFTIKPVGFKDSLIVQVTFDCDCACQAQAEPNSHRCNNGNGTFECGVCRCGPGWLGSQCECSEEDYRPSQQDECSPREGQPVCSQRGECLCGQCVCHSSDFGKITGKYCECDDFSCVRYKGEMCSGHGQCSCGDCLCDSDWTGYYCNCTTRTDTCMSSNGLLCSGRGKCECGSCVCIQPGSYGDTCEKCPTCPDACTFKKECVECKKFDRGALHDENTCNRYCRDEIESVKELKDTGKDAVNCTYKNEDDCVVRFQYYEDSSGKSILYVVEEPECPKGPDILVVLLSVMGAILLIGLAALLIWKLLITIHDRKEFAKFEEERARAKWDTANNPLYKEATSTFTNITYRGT
Description: as §1

physchem = conditions: kinetic from dmso stock
Description: The Chemiluminescent nitrogen detection (CLND) kinetic solubility was measured according to N. Bhattachar et. al. J. Pharm. Biomed.

[1] = target: T3, human soluble αvβ6 protein (Homo sapiens, UniProt P06756+P18564); assay: Fluorescence Polarisation Assay, binding of human soluble αvβ6 protein to an RGD-containing peptide; conditions: read-out: affinity (pIC50) for the human αvβ6 protein in the Fluorescence Polarisation Assay (converted)
T3 construct: The expressed protein contained amino acid 31-987 of αv followed by a Tev cleavage site; Tev cleavage site (C); 6His tag (C); Prescission protease site (C); FLAG tag (C); made in house; host or cells: baculovirus expression system (pFastBac dual construct)
From the text: Binding of human soluble αvβ6 protein to an RGD-containing Peptide by Fluorescence Polarisation Assay:
The extracellular domains of αv and β6 were co-expressed from a pFastBac dual construct using the baculovirus expression system. […] The protein was secreted into the media on expression; it was purified using diafiltration followed by purification using the His tag followed by the FLAG tag and then size exclusion chromatography. […] A fluorescent binding peptide based on LAPβ3 was synthesised chemically, having the sequence Ac-[…](Cy3B)-NH2. An assay buffer of 25 mM HEPES pH7.4, 150 mM NaCl, 1 mM CHAPS and […] was used. To black low volume 384 well plates were added […] of test compound in 100% DMSO, followed by […] αvβ6 protein. Plates were incubated at room temperature for 15 minutes before addition of […] fluorescent RGD-containing peptide. […] For active antagonists in the assay, data were fitted to a 4 parameter logistic equation for IC50 determinations.

αvβ6 = target: T4, αvβ6 (Homo sapiens, UniProt P06756+P18564); assay: Cell Adhesion Assay K562-αvβ6 (LAP-b1); assay type: cell-based; conditions: K562-αvβ6 cells, ligand LAP-b1, 2 mM MgCl2; read-out: affinity in the cell Adhesion Assays αvβ6 pIC50 (converted)
T4 construct: expressed in transfected cells; host or cells: K562-αvβ6
T4 sequence (P06756 31-1048): as the sequence (P06756 31-1048) above
T4 sequence (P18564 22-788): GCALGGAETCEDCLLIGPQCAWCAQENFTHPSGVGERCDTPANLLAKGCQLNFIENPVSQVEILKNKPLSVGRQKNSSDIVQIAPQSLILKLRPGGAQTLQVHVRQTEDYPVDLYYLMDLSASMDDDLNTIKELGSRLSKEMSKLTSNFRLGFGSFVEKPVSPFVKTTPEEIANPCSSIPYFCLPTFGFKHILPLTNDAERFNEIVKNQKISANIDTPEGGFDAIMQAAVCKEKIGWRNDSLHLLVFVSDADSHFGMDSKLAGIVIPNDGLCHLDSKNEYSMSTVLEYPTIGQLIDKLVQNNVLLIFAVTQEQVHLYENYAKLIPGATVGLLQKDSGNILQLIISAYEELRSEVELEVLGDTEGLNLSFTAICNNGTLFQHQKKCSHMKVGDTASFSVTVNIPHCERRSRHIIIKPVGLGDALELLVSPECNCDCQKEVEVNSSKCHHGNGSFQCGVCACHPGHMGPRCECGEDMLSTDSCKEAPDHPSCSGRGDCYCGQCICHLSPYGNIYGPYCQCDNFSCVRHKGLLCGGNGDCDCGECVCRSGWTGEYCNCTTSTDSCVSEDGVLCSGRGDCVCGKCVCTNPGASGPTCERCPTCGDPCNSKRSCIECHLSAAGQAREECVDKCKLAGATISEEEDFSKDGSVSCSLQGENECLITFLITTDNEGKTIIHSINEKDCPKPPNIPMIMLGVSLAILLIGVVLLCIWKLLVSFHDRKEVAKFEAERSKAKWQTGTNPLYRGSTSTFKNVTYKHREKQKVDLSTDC
Description: as §1

αvβ8 = target: T5, αvβ8 (Homo sapiens, UniProt P06756+P26012); assay: Cell Adhesion Assay K562-αvβ8 (LAP-b1); assay type: cell-based; conditions: K562-αvβ8 cells, ligand LAP-b1, 2 mM MgCl2; read-out: affinity in the cell Adhesion Assays αvβ8 pIC50 (converted)
T5 construct: expressed in transfected cells; host or cells: K562-αvβ8
T5 sequence (P06756 31-1048): as the sequence (P06756 31-1048) above
T5 sequence (P26012 43-769): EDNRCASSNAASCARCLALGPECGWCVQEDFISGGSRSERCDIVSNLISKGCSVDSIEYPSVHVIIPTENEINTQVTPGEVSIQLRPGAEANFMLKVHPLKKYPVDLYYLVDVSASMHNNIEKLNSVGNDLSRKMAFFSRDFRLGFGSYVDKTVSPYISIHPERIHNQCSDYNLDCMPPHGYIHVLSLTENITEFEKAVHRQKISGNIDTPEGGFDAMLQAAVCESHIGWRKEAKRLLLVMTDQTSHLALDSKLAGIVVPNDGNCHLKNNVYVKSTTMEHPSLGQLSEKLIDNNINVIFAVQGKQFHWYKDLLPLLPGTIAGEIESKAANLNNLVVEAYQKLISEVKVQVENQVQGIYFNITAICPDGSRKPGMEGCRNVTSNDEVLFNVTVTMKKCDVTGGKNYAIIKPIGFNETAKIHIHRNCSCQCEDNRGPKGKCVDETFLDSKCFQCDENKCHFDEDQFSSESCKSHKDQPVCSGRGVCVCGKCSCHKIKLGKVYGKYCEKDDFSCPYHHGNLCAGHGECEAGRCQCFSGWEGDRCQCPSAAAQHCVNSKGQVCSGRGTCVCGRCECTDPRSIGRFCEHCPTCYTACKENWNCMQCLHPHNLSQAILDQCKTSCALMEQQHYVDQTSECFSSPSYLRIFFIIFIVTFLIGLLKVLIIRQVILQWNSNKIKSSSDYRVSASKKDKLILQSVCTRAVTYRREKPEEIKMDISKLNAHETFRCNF
Description: as §1

Q: With CCc1cc(C)nn1-c1cccc(C(CC(=O)O)CN2CC[C@@H](CCc3ccc4c(n3)NCCC4)C2)c1 (stereo partly drawn) [Example 3, 3-(3-(5-Ethyl-3-methyl-1H-pyrazol-1-yl)phenyl)-4-((R)-3-(2-(5,6,7,8-tetrahyrdro-1,8-naphthyridin-2-yl)ethyl)pyrrolidin-1-yl)butanoic acid] as the compound, how does the IC50 (αvβ5) read?
A: The IC50 was 126 nM.

Q: What about the IC50 (αvβ3) of the same compound?
A: Its IC50 is 1000 nM.

Q: And the solubility kinetic (physchem)?
A: Its solubility kinetic is 276 µM (≈ 138 µg/mL).

Q: And the IC50 [1]?
A: Its IC50 is 6.31 nM.

Q: What about the IC50 (αvβ6) of the same compound?
A: Its IC50 is 7.94 nM.

Q: What about the IC50 (αvβ8) of the same compound?
A: Its IC50 is 20 nM.

Q: With O=C(O)CC(CN1CC[C@@H](CCc2ccc3c(n2)NCCC3)C1)c1cccc(-n2cccn2)c1 (stereo partly drawn) [Example 4, 3-(3-(1H-Pyrazol-1-yl)phenyl)-4-((R)-3-(2-(5,6,7,8-tetrahydro-1,8-naphthyridin-2-yl)ethyl)pyrrolidin-1-yl)butanoic acid] as the compound, how does the solubility kinetic (physchem) read?
A: The solubility kinetic was 388 µM (≈ 178 µg/mL).

Q: For Cc1nn(-c2cccc(C(CC(=O)O)CN3CC[C@@H](CCc4ccc5c(n4)NCCC5)C3)c2)c(C)c1F (stereo partly drawn) [Example 6, 3-(3-(4-Fluoro-3,5-dimethyl-1H-pyrazol-1-yl)phenyl)-4-((R)-3-(2-(5,6,7,8-tetrahydro-1,8-naphthyridin-2-yl)ethyl)pyrrolidin-1-yl)butanoic acid], which IC50 (αvβ5) is on record?
A: Its IC50 is 251 nM.

Q: And the IC50 (αvβ3)?
A: The IC50 was 1580 nM.

Q: What about the solubility kinetic (physchem) of the same compound?
A: The solubility kinetic was 437 µM (≈ 221 µg/mL).

Q: And the IC50 [1]?
A: Its IC50 is 20 nM.

Q: What about the IC50 (αvβ6) of the same compound?
A: The IC50 was 7.94 nM.

Q: And the IC50 (αvβ8)?
A: The IC50 was 50.1 nM.

Q: For CCc1cc(CC)n(-c2cccc(C(CC(=O)O)CN3CC[C@@H](CCc4ccc5c(n4)NCCC5)C3)c2)n1 (stereo partly drawn) [Example 5, 3-(3-(3,5-Diethyl-1H-pyrazol-1-yl)phenyl)-4-((R)-3-(2-(5,6,7,8-tetrahydro-1,8-naphthyridin-2-yl)ethyl)pyrrolidin-1-yl)butanoic acid], which IC50 (αvβ5) is on record?
A: Its IC50 is 251 nM.

Q: And the IC50 (αvβ3)?
A: Its IC50 is 794 nM.

Q: What about the solubility kinetic (physchem) of the same compound?
A: Its solubility kinetic is 470 µM (≈ 242 µg/mL).

Q: And the IC50 [1]?
A: Its IC50 is 15.8 nM.

Q: What about the IC50 (αvβ6) of the same compound?
A: The IC50 was 7.94 nM.

Q: And the IC50 (αvβ8)?
A: Its IC50 is 39.8 nM.
